Assay results: patent publication US10165777B2, “Substituted pyrazolylpyrazole derivative and use of same as herbicide” (KYOYU AGRI CO., LTD., priority 2015, dated 2019)

Legend:
Assay type in all cases: in vivo
Echinochloa crus-galli = test: Paddy herbicidal activity test; details: irrigated pot, treated at 3.5 leaf stage of Echinochloa crus-galli, 30 days
Protocol: (§1) 1. Paddy Herbicidal Activity Test Rice paddy soil was filled into a 1/10000 are pot followed by the addition of suitable amounts of water and chemical fertilizer, kneading, seeding with Echinochloa crus-galli, Monochoria vaginalis and Scirpus juncoides and maintaining in an irrigated state at a water depth of 3 cm. Wettable powders of Target Compound (I) shown in Table 1 prepared in compliance with the preparation examples were diluted with a suitable amount of water, rice plants in the 2.0 leaf stage were transplanted during 3.5 leaf stage of Echinochloa crus-galli, and treated by dropping in chemical in the prescribed amount per 10 are using a pipette. After treating for 30 days in a glass greenhouse at an average atmospheric temperature of 30° C., the herbicidal efficacy thereof was investigated. Evaluation of herbicidal efficacy was carried out by comparing growth inhibition rate (%) with an untreated group, while evaluation of phytotoxicity was carried out by comparing growth inhibition rate (%) with the state of a complete eradication group, and were evaluated at 11 levels indicated below.

Monochoria vaginalis = test: Paddy herbicidal activity test; details: irrigated pot, 30 days
Protocol: as §1

Scirpus juncoides = test: Paddy herbicidal activity test; details: irrigated pot, 30 days
Protocol: as §1

Oryza sativa = test: Paddy herbicidal activity test, phytotoxicity to transplanted rice; details: rice transplanted in 2.0 leaf stage, 30 days
Protocol: as §1

Chenopodium album [1] = test: Farming soil treatment test; details: soil surface spray prior to weed growth, 30 days
Protocol: (§2) Field soil was filled into a 1/6000 are pot followed by seeding with Digitaria ciliaris, Chenopodium album and Amaranthus retroflexus and covering with soil. Wettable powders of compounds of formula (I) shown in Table 1 prepared in compliance with the preparation examples were diluted with water to the prescribed amount of chemical and uniformly sprayed onto each soil surface layer using 100 liters of sprayed water per 10 are prior to weed growth following seeding. After treating for 30 days in a glass greenhouse at an average atmospheric temperature of 30° C., the herbicidal efficacy thereof was investigated. Evaluation of herbicidal efficacy was carried out in the same manner as the above-mentioned Test Example 1.

Digitaria ciliaris [2] = test: Farming soil treatment test; details: soil surface spray prior to weed growth, 30 days
Protocol: as §2

Amaranthus retroflexus [3] = test: Farming soil treatment test; details: soil surface spray prior to weed growth, 30 days
Protocol: as §2

Chenopodium album [4] = test: Weed foliar treatment test (Test 3, 1.0 to 2.0 leaf stage); details: foliar spray at 1.0 to 2.0 leaf stage of Digitaria ciliaris, 3 weeks
Protocol: (§3) Soil was filled into a 1/6000 are pot followed by seeding with Digitaria ciliaris, Chenopodium album and Amaranthus retroflexus, covering with soil, and cultivating in a glass greenhouse at an average atmospheric temperature of 25° C. Wettable powders of Target Compound (I) shown in Table 1 prepared in compliance with the preparation examples were diluted with water to the prescribed amount of chemical and uniformly sprayed onto the weeds using 150 liters of sprayed water per 10 are when Digitaria ciliaris had grown to the 1.0 to 2.0 leaf stage. After treating for 3 weeks in a glass greenhouse at an average atmospheric temperature of 25° C., the herbicidal efficacy thereof was investigated. Evaluation of herbicidal efficacy was carried out in the same manner as the above-mentioned Test Example 1.

Digitaria ciliaris [5] = test: as above; details: foliar spray at 1.0 to 2.0 leaf stage of Digitaria ciliaris, 3 weeks
Protocol: as §3

Amaranthus retroflexus [6] = test: as above; details: foliar spray at 1.0 to 2.0 leaf stage of Digitaria ciliaris, 3 weeks
Protocol: as §3

Galinsoga parviflora = test: Weed foliar treatment test (Test 4, 4.0 to 5.0 leaf stage); details: 10 g a.i./10 a; foliar spray at 4.0 to 5.0 leaf stage of Digitaria ciliaris; 20 days
Protocol: (§4) Field soil was filled into a 1/4500 are pot followed by seeding with Digitaria ciliaris and Galinsoga parviflora, covering with soil and cultivating in a glass greenhouse at an average atmospheric temperature of 25° C.
(§5) Wettable powders of Target Compound (I) shown in Table 1 prepared in compliance with the preparation examples were diluted with water to the prescribed amount of chemical and uniformly sprayed onto the weeds using 100 liters of sprayed water per 10 are when Digitaria ciliaris had grown to the 4.0 to 5.0 leaf stage (plant height: 10 cm to 15 cm).
(§6) After treating for 20 days in a glass greenhouse at an average atmospheric temperature of 25° C., the herbicidal efficacy thereof was investigated.
(§7) Evaluation of herbicidal efficacy was carried out in the same manner as the above-mentioned Test Example 1.

Digitaria ciliaris [7] = test: as above; details: 10 g a.i./10 a; foliar spray at 4.0 to 5.0 leaf stage of Digitaria ciliaris (plant height 10 cm to 15 cm); 20 days
Protocol: as §4, §5, §6, §7

Compound	herbicidal efficacy, Echinochloa crus-galli (Echinochloa crus-galli; 1 g a.i./10 a)	herbicidal efficacy, Echinochloa crus-galli (Echinochloa crus-galli; 5 g a.i./10 a)	herbicidal efficacy, Monochoria vaginalis (Monochoria vaginalis; 1 g a.i./10 a)	herbicidal efficacy, Monochoria vaginalis (Monochoria vaginalis; 5 g a.i./10 a)	herbicidal efficacy, Scirpus juncoides (Scirpus juncoides; 1 g a.i./10 a)	herbicidal efficacy, Scirpus juncoides (Scirpus juncoides; 5 g a.i./10 a)	phytotoxicity, Oryza sativa (Oryza sativa; 1 g a.i./10 a)	phytotoxicity, Oryza sativa (Oryza sativa; 5 g a.i./10 a)	herbicidal efficacy, Chenopodium album (Chenopodium album [1]; 5 g a.i./10 a)	herbicidal efficacy, Chenopodium album (Chenopodium album [1]; 10 g a.i./10 a)	herbicidal efficacy, Digitaria ciliaris (Digitaria ciliaris [2]; 5 g a.i./10 a)	herbicidal efficacy, Digitaria ciliaris (Digitaria ciliaris [2]; 10 g a.i./10 a)	herbicidal efficacy, Amaranthus retroflexus (Amaranthus retroflexus [3]; 5 g a.i./10 a)	herbicidal efficacy, Amaranthus retroflexus (Amaranthus retroflexus [3]; 10 g a.i./10 a)	herbicidal efficacy, Chenopodium album (Chenopodium album [4]; 5 g a.i./10 a)	herbicidal efficacy, Chenopodium album (Chenopodium album [4]; 10 g a.i./10 a)	herbicidal efficacy, Digitaria ciliaris (Digitaria ciliaris [5]; 5 g a.i./10 a)	herbicidal efficacy, Digitaria ciliaris (Digitaria ciliaris [5]; 10 g a.i./10 a)	herbicidal efficacy, Amaranthus retroflexus (Amaranthus retroflexus [6]; 5 g a.i./10 a)	herbicidal efficacy, Amaranthus retroflexus (Amaranthus retroflexus [6]; 10 g a.i./10 a)	further results
N#Cc1cnn(-c2nn3c(c2Cl)CCCC3)c1/C=C/c1ncccn1 [Compound 3.39, reference compound]	1 (10% to less than 20%)	2 (20% to less than 30%)	2 (20% to less than 30%)	3 (30% to less than 40%)	0 (0% to less than 10% (growth inhibition rate))	0 (0% to less than 10% (growth inhibition rate))	0 (0% to less than 10% (growth inhibition rate))	1 (10% to less than 20%)	4 (40% to less than 50%)	4 (40% to less than 50%)	3 (30% to less than 40%)	4 (40% to less than 50%)	2 (20% to less than 30%)	3 (30% to less than 40%)	4 (40% to less than 50%)	5 (50% to less than 60%)	2 (20% to less than 30%)	3 (30% to less than 40%)	1 (10% to less than 20%)	2 (20% to less than 30%)	herbicidal efficacy, Galinsoga parviflora (Galinsoga parviflora): 3 (30% to less than 40%); herbicidal efficacy, Digitaria ciliaris (Digitaria ciliaris [7]): 2 (20% to less than 30%)
N#Cc1cnn(-c2nn3c(c2Cl)CCCC3)c1/C=C/c1ccccn1 [Compound 3.43, reference compound]	2 (20% to less than 30%)	3 (30% to less than 40%)	3 (30% to less than 40%)	3 (30% to less than 40%)	0 (0% to less than 10% (growth inhibition rate))	1 (10% to less than 20%)	1 (10% to less than 20%)	2 (20% to less than 30%)	2 (20% to less than 30%)	3 (30% to less than 40%)	1 (10% to less than 20%)	3 (30% to less than 40%)	2 (20% to less than 30%)	2 (20% to less than 30%)	3 (30% to less than 40%)	4 (40% to less than 50%)	1 (10% to less than 20%)	3 (30% to less than 40%)	0 (0% to less than 10% (growth inhibition rate))	2 (20% to less than 30%)	herbicidal efficacy, Galinsoga parviflora (Galinsoga parviflora): 3 (30% to less than 40%); herbicidal efficacy, Digitaria ciliaris (Digitaria ciliaris [7]): 1 (10% to less than 20%)
